Reference: patent publication US20210172934A1, “SINGLE CELL CLONING APPROACHES FOR BIOLOGICAL STUDIES” (priority 2018, published 2021)

Key:
[1] = system: Met-1 cells; assay: In vitro chemosensitivity study (CellTiter-Glo, ATP as surrogate for viability); format: cell-based, murine; settings: 72 hours incubation; ATP levels (CellTiter-Glo)
Protocol: (§1) 4,000 Met-1 cells were plated in quadruplicates in 96-well plates containing growth media. The next day, vehicle (PBS) or chemotherapy (doxorubicin: 0.33 nM-2.2 ∝M; paclitaxel: 14 μM-160 μM) was added to the plate and incubated for 72 hours. ATP levels were quantified as a surrogate measure for viability (CellTiter-Glo, Promega) using a luminometer (Perkin-Elmer).
We next tested responsiveness of Met-1 mammary carcinoma to combination doxorubicin (A), cyclophosphamide (C), and paclitaxel (T) chemotherapy, AC-T, a standard of care chemotherapy regimen for breast cancer patients with ER-negative disease. We first tested the sensitivity of Met-1 cells to doxorubicin and paclitaxel in vitro and performed an initial in vivo experiment to identify a therapeutically relevant, well-tolerated combinatorial dose.

[2] = system: MT-2 WT and KO cell lines; assay: In vitro sensitivity of MT-2 WT and KO cell lines to chemotherapy; format: cell-based, murine
Protocol: as §1, with “Met-1” left out

| Structure (SMILES) | viability of Met-1 cells in vitro [1] | (enhanced) sensitivity of MT-2 KO versus WT in vitro [2] |
| --- | --- | --- |
| COc1cccc2c1C(=O)c1c(O)c3c(c(O)c1C2=O)C[C@@](O)(C(=O)CO)C[C@@H]3O[C@H]1C[C@H](N)[C@H](O)[C@H](C)O1 [doxorubicin, Doxorubicin] | significantly decreased viability | not apparent |
| CC(=O)O[C@H]1C(=O)[C@@]2(C)[C@H]([C@H](OC(=O)c3ccccc3)[C@]3(O)C[C@H](OC(=O)[C@H](O)[C@@H](NC(=O)c4ccccc4)c4ccccc4)C(C)=C1C3(C)C)[C@]1(OC(C)=O)CO[C@@H]1C[C@@H]2O [paclitaxel] | significantly decreased viability | not apparent |
